Legend:
[1] = Determination of PCB concentrations in plasma of HELPcB and control participants; format: in vivo; details: human plasma
Protocol: The laboratory regularly participates in round robins for the determination of PCBs in plasma (www.g-equas.de).
Plasma concentrations of PCB congeners were quantified in blood samples from all participants using gas chromatography/mass spectrometry (GC–MS) (Fig. 2A and Supplementary Table 2). A total of 19 PCB congeners were measured in control (n = 10) and HELPcB (n = 10) participants, with PCBs detected in all individuals. […] In the control group, PCB plasma concentrations primarily reflected background environmental exposure, such as dietary intake, representing the general population’s burden.

[2] = tested on: CYP2C9 mRNA; details: primary human hepatocytes, three donors, 48 h exposure; PCB74 0.1 and 0.5 µM
[3] = tested on: CYP2B6; assay: CYP phenotyping cocktail clinical study: efavirenz/8-OH-efavirenz metabolic ratio and its association with PCB plasma levels; details: linear regression of MR AUC0–8 h 8-OH-efavirenz/efavirenz (CYP2B6 activity) on PCB plasma concentration
Protocol: (§1) The participants were ascertained not to have any acute disease by medical history, physical examination, laboratory screening, including hematological and biochemical blood tests, and a 12-lead electrocardiogram. […] The demographic data of the subjects are summarized in Table 1 in the supplemental data. At the enrollment visit, 2 blood samples (9 ml each) were collected into ethylenediaminetetraacetic acid (EDTA)-containing tubes taken from each subject for analyzing the plasma concentrations of PCB congeners and for pharmacogenetic analysis.
(§2) Participants stayed fasted from the evening before until 3 h after drug administration. After that, a meal was provided. Water and juice were permitted but alcoholic and caffeinated beverages were not allowed from the evening before drug administration until the last blood sample was taken on the next day. Venous blood samples (9 ml each) were collected through an intravenous catheter immediately before and 0.25, 0.5, 0.75, 1, 1.5, 2, 2.5, 3, 4, 5, 6, 7, 8, and 24 h after drug administration. Blood was drawn into EDTA-coated tubes, centrifuged at 1500 g for 10 min at 4 °C, and plasma samples were subsequently stored at − 80 °C until further analysis. After completely voiding the bladder immediately before drug administration, the participants collected urine from 0 to 24 h after drug administration. After weighing the collected urine, a 10 ml aliquot of each fraction was taken.
(§3) Commercially sourced standards and internal standards were used for quantification (see Supplemental Materials). In brief, 20 µl of the plasma samples were protein-precipitated with 80 µl methanol containing all internal standards or were treated for 16 h at 37 °C with 2 µl β-glucuronidase (1,000,000 Units) for deconjugation before protein precipitation with 78 µl methanol containing internal standards. Samples were centrifuged for 20 min, at 4 °C and 17,000 × g, and 40 µl of the supernatants were diluted with 40 µl LC–MS grade water, centrifuged again for 5 min at 4 °C and 17,000 × g and 50 µl supernatant were transferred to LC–MS vials 5 µl of the samples were injected into the LC–MS system.
(§4) An Agilent 1290 Infinity II UHPLC coupled with a SCIEX QTRAP6500 + triple quadrupole mass spectrometer was used. Chromatographic separation was achieved on an Agilent Poroshell 120 EC-C18 (1.9 µm, 2.1 × 50 mm) column with A: 0.1% formic acid in water and B: methanol with a flow rate of 0.7 ml/min and a total run time of 8.5 min. Analytes were eluted using a gradient program. The following gradient steps represent gradual changes in % B over time: 5% B from 0 to 0.2 min, 30% B at 2 min, 34% B at 4.8 min, 95% B at 6.5 min, 95% B at 7.5 min and re-equilibrating to 5% B at 7.7 min and 5%B till 8.5 min. A representative chromatogram is shown in supplemental Fig. 2. The scheduled MRM mode was applied for analyte detection in both positive and negative ESI modes (Supplementary Table 4). Calibration curves were constructed with linear regression using weighted (1/x^2) models (detailed information in supplemental methods).
(§5) Partial areas under the plasma concentration–time curves from 0 to 3 h (AUC0–3 h), from 0 to 4 h (AUC0–4 h), and from 0 to 8 h (AUC0–8 h) were calculated based on measured concentrations by the linear trapezoidal rule without extrapolation. […] Metabolic ratios (MR) were calculated by dividing the partial AUC of the metabolite by the respective partial AUC of the parent drug. The MRs were used as biomarkers for the individual CYP activities of the study subjects.

[4] = tested on: CYP2D6; assay: CYP phenotyping cocktail clinical study: metoprolol/α-OH-metoprolol metabolic ratio and its association with PCB plasma levels; details: linear regression of MR AUC0–8 h α-OH-metoprolol/metoprolol (CYP2D6 activity) on PCB plasma concentration
Protocol: as §1, §2, §3, §4, §5

[5] = tested on: CYP2C9; assay: CYP phenotyping cocktail clinical study: torsemide/OH-torsemide metabolic ratio and its association with PCB plasma levels
Protocol: as §1, §2, §3, §4, §5

[6] = target: HEK293 cells overexpressing CYP2C9 (Homo sapiens, UniProt P11712); details: 0.1, 0.5, 1 µM PCB74, 24 h, then 10 µM torsemide 24 h
Protocol: (§6) CYP1A2 and CYP2C9 enzyme activity was first assessed using a luciferase-based P450-Glo™ screening system (Promega, Madison, WI, USA) following the manufacturer’s instructions. The reaction mixture consisted of 1 nM recombinant enzyme (CYP1A2 or CYP2C9), 250 µM luciferin–ME substrate, 0.1 M potassium phosphate buffer (pH 7.4), and an NADPH regeneration system (including NADP⁺, glucose-6-phosphate, MgCl₂, and glucose-6-phosphate dehydrogenase), in a total volume of 50 µL. Controls for enzyme inhibition included α-naphthoflavone (1 µM) for CYP1A2 and sulfaphenazole (2 µM) for CYP2C9. After preincubation at 37 °C for 10 min (excluding NADPH), the reaction was initiated by adding the NADPH regeneration system and incubated for 30 min. To terminate the reaction and generate luminescence, 50 µL of Luciferin Detection Reagent was added, followed by a 20-min incubation at room temperature. Luminescence was measured using a luminometer, with light intensity proportional to CYP activity. […] Enzyme activity was quantified relative to a d-luciferin standard curve and expressed as pmol luciferin/min/pmol CYP. […] Cells were maintained at 37 °C with 5% CO₂ throughout the experiment. […] Supernatants were transferred to LC–MS vials and analyzed for relevant metabolites. Details on metabolite quantification are provided in the supplemental file. […]

[7] = target: recombinant CYP2C9 (Homo sapiens, UniProt P11712); details: PCB74 1–10 µM; Luciferin–ME substrate
Protocol: as §6

[8] = tested on: CYP2C9; parameters: method as in Makia et al. [2014]; details: cFos and JunD binding to CYP2C9 promoter; ref Makia et al. [2014]; cited from earlier work
[9] = tested on: CYP1A2; parameters: method as in Solan and Lavado [2023]; details: ref Solan and Lavado [2023]; cited from earlier work
[10] = linear regression of MR AUC0–8 h OH-torsemide/torsemide (CYP2C9 activity) on PCB plasma concentration

Chain of HEK293 cells overexpressing CYP2C9 (P11712 whole entry): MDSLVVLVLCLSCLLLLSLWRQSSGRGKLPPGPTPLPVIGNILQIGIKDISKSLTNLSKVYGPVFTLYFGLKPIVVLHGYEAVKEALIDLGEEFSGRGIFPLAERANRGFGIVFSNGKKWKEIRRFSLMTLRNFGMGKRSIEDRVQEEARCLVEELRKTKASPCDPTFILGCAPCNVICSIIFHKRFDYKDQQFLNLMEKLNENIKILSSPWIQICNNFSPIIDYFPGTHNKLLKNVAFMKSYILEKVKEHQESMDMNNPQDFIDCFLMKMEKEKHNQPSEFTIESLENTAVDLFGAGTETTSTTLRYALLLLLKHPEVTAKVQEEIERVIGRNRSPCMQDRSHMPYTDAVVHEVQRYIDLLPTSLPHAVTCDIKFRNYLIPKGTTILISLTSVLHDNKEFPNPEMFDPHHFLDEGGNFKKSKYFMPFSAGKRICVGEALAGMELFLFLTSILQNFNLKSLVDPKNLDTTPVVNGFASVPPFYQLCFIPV
Chain of recombinant CYP2C9 (P11712 whole entry): as above

## Clc1ccc(-c2cc(Cl)c(Cl)cc2Cl)cc1 [PCB74]
[1]; HELPcB (occupationally exposed) group
  PCB plasma concentration, Mean [±SD] HELPcB: 0.129 ± 0.121 ng/mL
[1]; HELPcB group, N 10
  PCB plasma concentration, Geometric mean, HELPcB: 0.086 ng/mL
[1]; all participants
  PCB plasma concentration, Mean [±SD] all: 0.071 ± 0.102 ng/mL
[1]; control group (background exposure)
  PCB plasma concentration, Mean [±SD] control: 0.014 ± 0.011 ng/mL
[1]; control group, N 10
  PCB plasma concentration, Geometric mean, Control: 0.010 ng/mL
[2]
  effect on CYP2C9 mRNA expression: did not significantly increase CYP2C9 mRNA expression
[3]
  t value: 0,808
  β (standardized regression coefficient): 0,204
[3]; PM excl
  t value: 0,622
  β (standardized regression coefficient): 0,170
[4]
  t value: 1,723
  β (standardized regression coefficient): 0,376
[5]; adjusted for co-factors (smoking status, gender, BMI, age)
  association with CYP2C9 activity in hierarchical generalized mixed model: became significant when BMI, gender, or all factors were included as co-factors
[5]; [10]
  t value: 1,826
  β (standardized regression coefficient): 0,395
[5]; linear regression of MR AUC0–8 h OH-torsemide/torsemide (CYP2C9 activity) on PCB plasma concentration, PM excl
  t value: 1,723
[6]
  effect on CYP2C9 activity in HEK293 cells (torsemide probe): did not significantly modulate CYP2C9 activity
[7]
  effect on CYP2C9 enzyme activity (luminescence): remained unaffected

## CC(C)(C)c1cc(O)ccc1O [tBHQ, tert-butylhydroquinone]
[8]
  effect on CYP2C9 expression: induces CYP2C9 expression via AP-1 activation

## O=S(=O)(O)C(F)(F)C(F)(F)C(F)(F)C(F)(F)C(F)(F)C(F)(F)C(F)(F)C(F)(F)F [PFOS]
[9]
  effect on CYP1A2 activity: inhibits CYP1A2 activity

From publication PMC12477080, “Polychlorinated biphenyls (PCBs) interact with drug metabolism in vivo” (Archives of Toxicology, 2025)
